Some test systems named below: ACHN renal; HS 578T breast; MDA-MB-231 breast; MDA-MB-435; NCI-H460 lung; OVCAR-3 ovarian; PC-3 prostate; SF-268 CNS; SNB-75 CNS; SR leukemia.
Common to all, as to assay: DTP human tumour cell line panel, 48 h

By GI50 is commonly meant the concentration at which growth is held to half of that of the control. For orientation: TGI means the concentration giving total growth inhibition.

Where “and” joins values, the source holds several entries; their conditions need not be identical. Equal entries are not always repeated.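 Following 48 hours of exposure in 96-well plates, responses at five concentrations were used to interpolate endpoints linearly. GI50 = concentration required for 50% inhibition of growth. TGI: concentration producing complete growth inhibition.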

Turning to `CCOC(=O)c1c(CN2CCN(C)CC2)nc2ccc(Cl)cc2c1-c1ccccc1`, the GI50 in the experiment with ACHN renal was 12200 nM; in the experiment on HS 578T breast, 4.69 µM; with MDA-MB-231 breast it was 7160 nM; in the experiment with MDA-MB-435, 2710 nM; in the experiment on NCI-H460 lung it was 3900 nM; with OVCAR-3 ovarian, 6.5 µM. For the same compound, the GI50 in the experiment on PC-3 prostate was 8830 nM; in the experiment on SF-268 CNS it was 10.2 µM; in the experiment with SNB-75 CNS, 2.15 µM; in the experiment with SR leukemia, 1930 nM. The TGI in the experiment on ACHN renal was found to be 25.5 µM; in the experiment on HS 578T breast, 23.1 µM; with MDA-MB-231 breast, 21.2 µM; with MDA-MB-435, 7.87 µM; in the experiment with NCI-H460 lung it was 13 µM; in the experiment with OVCAR-3 ovarian, 19.6 µM. Besides, the TGI turned out to be 24.8 µM in the experiment with PC-3 prostate, 23.5 µM with SF-268 CNS, 8.95 µM with SNB-75 CNS and 4.78 µM with SR leukemia.

Consider `COc1ccc(-c2c(N)noc2-c2cc(OC)c3c(c2)OCCO3)cc1`, for which the GI50 is 131 nM in the experiment with ACHN renal; less than 0.0106 µM in the experiment on HS 578T breast; 85.1 nM in the experiment with MDA-MB-231 breast; less than 10 nM in the experiment with MDA-MB-435; less than 10 nM in the experiment with NCI-H460 lung; less than 0.01 µM in the experiment on OVCAR-3 ovarian. The GI50 in the experiment on PC-3 prostate is less than 15.7 nM; with SF-268 CNS, 0.0481 µM; in the experiment on SNB-75 CNS it was less than 0.01 µM; in the experiment with SR leukemia, less than 10 nM. Also, the concentration for total growth inhibition (TGI) with ACHN renal was greater than 100 µM; in the experiment with HS 578T breast it was greater than 100 µM; in the experiment with MDA-MB-231 breast, greater than 43.3 µM; in the experiment with MDA-MB-435 it was 0.0102 µM; in the experiment on NCI-H460 lung, 11.9 µM; in the experiment with OVCAR-3 ovarian it was less than 0.0126 µM. Besides, the TGI in the experiment with PC-3 prostate was greater than 40.7 µM; in the experiment with SF-268 CNS it was greater than 100 µM; in the experiment with SNB-75 CNS, 39 µM; in the experiment with SR leukemia, greater than 52.4 µM.

`C[C@@H]1CCc2ncc(F)cc2[C@H]2CCCN2c2ccn3ncc(c3n2)C(=O)N1`: the GI50 in the experiment on ACHN renal was 65900 nM; in the experiment with HS 578T breast, 24.5 µM; in the experiment on MDA-MB-231 breast, 29900 nM; in the experiment with MDA-MB-435, 83100 nM; in the experiment on NCI-H460 lung it was greater than 100000 nM; in the experiment on OVCAR-3 ovarian, 88.6 µM. Besides, the GI50 in the experiment on PC-3 prostate is greater than 100000 nM; in the experiment with SF-268 CNS, greater than 100 µM; in the experiment on SNB-75 CNS, 19.6 µM; with SR leukemia, 4380 nM. Further, the total growth inhibition concentration (TGI) with ACHN renal, in the experiment with HS 578T breast, with MDA-MB-231 breast, with MDA-MB-435, in the experiment with NCI-H460 lung and with OVCAR-3 ovarian was greater than 100 µM each time. Also, the TGI was greater than 100 µM with PC-3 prostate, greater than 100 µM with SF-268 CNS, 97 µM in the experiment on SNB-75 CNS and greater than 100 µM with SR leukemia.

Consider `NC(=O)/C(=C/n1cnc(-c2cc(C(F)(F)F)cc(C(F)(F)F)c2)n1)c1cncnc1`, for which the GI50 with ACHN renal is 386 nM; in the experiment on HS 578T breast, 0.793 µM; in the experiment with MDA-MB-231 breast it was 186 nM; in the experiment with MDA-MB-435, 237 nM; in the experiment on NCI-H460 lung it was 187 nM; in the experiment on OVCAR-3 ovarian, 0.154 µM. In addition, the GI50 was 185 nM with PC-3 prostate, 0.516 µM with SF-268 CNS, 0.454 µM in the experiment with SNB-75 CNS and 56.3 nM in the experiment on SR leukemia. Also, the total growth inhibition concentration (TGI) turned out to be 11.4 µM in the experiment with ACHN renal; 13.5 µM in the experiment with HS 578T breast; 16.9 µM with MDA-MB-231 breast; 3.89 µM in the experiment with MDA-MB-435; 5.61 µM with NCI-H460 lung; 3.32 µM with OVCAR-3 ovarian. Further, the TGI was 14.8 µM with PC-3 prostate, 11.9 µM in the experiment with SF-268 CNS, 5.48 µM in the experiment with SNB-75 CNS and greater than 34.4 µM in the experiment on SR leukemia.

Turning to `CC(=O)OCC1OC(n2c3c(cc(C#N)c2=S)CCCC3)C(OC(C)=O)C(OC(C)=O)C1OC(C)=O` (stereo unspecified), the total growth inhibition concentration (TGI) with ACHN renal, with HS 578T breast, with MDA-MB-231 breast, with MDA-MB-435, in the experiment on NCI-H460 lung and with OVCAR-3 ovarian was greater than 100 µM each time. The TGI in the experiment on PC-3 prostate is greater than 100 µM; in the experiment on SF-268 CNS it was greater than 100 µM; in the experiment on SNB-75 CNS it was > 100 µM and 50.4 µM; in the experiment on SR leukemia, greater than 100 µM. Besides, the GI50 was > 100 µM and 25.5 µM with HS 578T breast; 45.2 µM and > 100 µM with OVCAR-3 ovarian; 36600 nM and > 100000 nM with PC-3 prostate; > 100 µM and 22.9 µM with SF-268 CNS; > 100 µM and 14.6 µM in the experiment with SNB-75 CNS; 32400 nM and > 100000 nM in the experiment with SR leukemia.

For `COc1ccc(-c2cc(/C=C/C(=O)c3ccc(N)cc3)[nH]n2)cc1`, the GI50 was 2010 nM with ACHN renal; 4.04 µM in the experiment on HS 578T breast; 2140 nM with MDA-MB-231 breast; 2240 nM in the experiment on MDA-MB-435; 2070 nM in the experiment on NCI-H460 lung; 1.25 µM with OVCAR-3 ovarian. The GI50 in the experiment on PC-3 prostate is 2420 nM; in the experiment with SF-268 CNS it was 1.82 µM; with SNB-75 CNS, 2.25 µM; in the experiment with SR leukemia, 799 nM. The TGI in the experiment on ACHN renal came out at 10.6 µM; in the experiment on HS 578T breast it was 24.4 µM; with MDA-MB-231 breast, 8.29 µM; with MDA-MB-435, 7 µM; in the experiment on NCI-H460 lung, 4.95 µM; in the experiment on OVCAR-3 ovarian, 2.97 µM. For the same compound, the concentration for total growth inhibition (TGI) with PC-3 prostate came out at 10.1 µM; in the experiment with SF-268 CNS, 5.31 µM; in the experiment on SNB-75 CNS, 11.4 µM; with SR leukemia it was 6.09 µM.

As for `COc1cc(-c2nn(-c3cccc(NC(=O)CCNc4ccc(N5CCOCC5)cc4)c3)cc2-c2ccncc2)ccc1Cl`, the GI50 was 2440 nM in the experiment on ACHN renal; 3.27 µM in the experiment on HS 578T breast; 2050 nM in the experiment on MDA-MB-231 breast; 2410 nM in the experiment on MDA-MB-435; 2950 nM in the experiment with NCI-H460 lung; 2.45 µM with OVCAR-3 ovarian. For the same compound, the GI50 with PC-3 prostate is 2800 nM; in the experiment with SF-268 CNS, 4.42 µM; in the experiment with SNB-75 CNS, 4.22 µM; with SR leukemia it was 2130 nM. The TGI in the experiment on ACHN renal was 41.4 µM; in the experiment on HS 578T breast it was greater than 100 µM; in the experiment on MDA-MB-231 breast, 7.18 µM; in the experiment with MDA-MB-435 it was 7.28 µM; with NCI-H460 lung, 30 µM; in the experiment on OVCAR-3 ovarian, 8.55 µM. Moreover, the total growth inhibition concentration (TGI) in the experiment with PC-3 prostate was 31.4 µM; in the experiment on SF-268 CNS, greater than 100 µM; in the experiment with SNB-75 CNS it was greater than 100 µM; in the experiment on SR leukemia, 9.09 µM.

(Values after PubChem BioAssay (NCI).)
